Reference: patent publication US20110086916A1, “INTERVAL THERAPY FOR THE TREATMENT OF TINNITUS” (MERZ PHARMA GmbH & CO. KGaA, priority 2007, published 2011)

Test system: subjects with subjective tinnitus of at least moderate severity
Test: Double blind placebo controlled pilot trial of neramexane for treatment of tinnitus (TBF-12 score)
Assay type: in vivo, human
Settings: for Change in the TBF-12 total score from baseline, Change LSMean: ANCOVA
Description: Visit 1 (screening): After signing the consent form, the subject underwent a physical examination and clinical laboratory testing. Patient eligibility for the study was evaluated via a check of inclusion/exclusion criteria. An initial Tinnitus Interview was conducted. The subject also completed a Tinnitus-Beeinträchtigungs-Fragebogen (TBF-12) (i.e., a 12-item German modified and validated version (Greimel K V et al., Tinnitus-Beeinträchtigungs-Fragebogen (TBF-12). Manual. Frankfurt am Main: Swets & Zeitlinger B.V.; 2000) of the 25-item Tinnitus Handicap Inventory or THI (Newman C W, et al. Development of the Tinnitus Handicap Inventory. Arch Otolaryngol Head Neck Surg 1996; 122(2): 143-148; Newman C W, et al. Psychometric adequacy of the Tinnitus Handicap Inventory (THI) for evaluating treatment outcome. J Am Acad Audiol 1998; 9(2): 153-160.)), a Hospital Anxiety and Depression Scale—Depression Subscale (HADS-D) Questionnaire and a Hyperacusis (Geräuschüberempfindlichkeit-Fragenbogen (GÜF)) Questionnaire (if applicable).
Visit 2 (baseline): The subject was asked about adverse events and changes in concomitant medication/disease, which events/changes were documented. The subject was evaluated for study eligibility based on a review of the inclusion/exclusion criteria. Trial procedures as well as allowed and forbidden concomitant medications were reviewed with the subject. An initial Tinnitus Interview was conducted. The subject also completed a TBF-12, HADS-D Questionnaire and GÜF Questionnaire (if applicable). The subject was enrolled in the study and study medication (placebo or neramexane) was dispensed as described below.
Visit 3 (Week 4): This visit occurred at the end of the 4-week up-titration sequence. The subject was asked about adverse events and changes in concomitant medication/disease, which events/changes were documented. A follow-up Tinnitus Interview was conducted. The subject also completed a TBF-12, HADS-D Questionnaire and GÜF Questionnaire (if applicable). Medication compliance was assessed, and medication for the next 4 weeks was dispensed as described below.
(§1) Visit 4 (Week 8): This visit occurred at the end of the first 4-week fixed-dose double-blind treatment period. The subject was asked about adverse events and changes in concomitant medication/disease, which changes are documented. Blood samples were collected in order to determine neramexane pre-dose concentration. A follow-up Tinnitus Interview was conducted. The subject also completed a TBF-12, HADS-D Questionnaire and GÜF Questionnaire (if applicable). Medication compliance was assessed and, medication for the next 4 weeks was dispensed as described below.
as §1, with “Visit 5” for “Visit 4”, “(Week 12):” for “(Week 8):”, “the second” for “the first”, “documented.” for “documented. Blood samples were collected in order to determine neramexane pre-dose concentration.”
Visit 6 (Week 16, end of treatment): This visit occurred at the end of the 12-week fixed-dose double-blind treatment period. The subject was asked about adverse events and changes in concomitant medication/disease, which changes are documented. A clinical laboratory evaluation was performed. A follow-up Tinnitus Interview was conducted, and the subject completed a TBF-12, HADS-D Questionnaire and GÜF Questionnaire (if applicable). Pure-tone audiometry (air conduction) was also conducted.
Visit 7 (Week 20): This visit occurred at the end of the 4-week follow-up period after the last study medication dose. Review of concomitant medications as well as the occurrence of adverse events since the last visit is conducted with subject. […]

[1] = 25 mg/d, Week 4, ITT-LOCF, n=106
[2] = 25 mg/d, Week 8, ITT-LOCF, n=106
[3] = 25 mg/d, Week 12, ITT-LOCF, n=106
[4] = 25 mg/d, Week 16 (end of treatment), ITT-LOCF, n=106
[5] = 25 mg/d, Week 20 (Follow-up, 4 weeks without treatment), ITT-LOCF, n=100
[6] = 50 mg/d, Week 4, ITT-LOCF, n=106
[7] = 50 mg/d, Week 8, ITT-LOCF, n=106
[8] = 50 mg/d, Week 12, ITT-LOCF, n=106
[9] = 50 mg/d, Week 16 (end of treatment), ITT-LOCF, n=106
[10] = 50 mg/d, Week 20 (Follow-up, 4 weeks without treatment), ITT-LOCF, n=95
[11] = 75 mg/d, Week 4, ITT-LOCF, n=99
[12] = 75 mg/d, Week 8, ITT-LOCF, n=99
[13] = 75 mg/d, Week 12, ITT-LOCF, n=99
[14] = 75 mg/d, Week 16 (end of treatment), ITT-LOCF, n=99
[15] = 75 mg/d, Week 20 (Follow-up, 4 weeks without treatment), ITT-LOCF, n=89

## CC1(C)CC(C)(C)CC(C)(N)C1.CS(=O)(=O)O [neramexane mesylate]
After 16-week double-blind treatment (Visit 6), final daily doses of 50 or 75 mg, distinct from placebo or low-dose (25 mg) groups
  Improvement of tinnitus as measured by the TBF-12: clear improvement of their tinnitus
End of the 4-week wash-out (Week 20, Visit 7), 50 mg
  Differences in TBF-12 improvement between the 50 mg and the placebo group: reached statistical significance
Subjects previously treated with either 50 or 75 mg
  Improvement of tinnitus during 4-week wash-out period without any medication: further relevant improvement of their tinnitus

## CC1(C)CC(C)(C)CC(C)(N)C1 [Neramexane, 1-amino-1,3,3,5,5-pentamethylcyclohexane]
25 mg/d, Week 4, ITT-LOCF
  Change in the TBF-12 total score from baseline, Change LSMean: −0.8
[1]
  Change in the TBF-12 total score from baseline, Change Mean ± SD: −1.0 ± 2.6
  TBF-12 total score, Actual Mean ± SD: 13.4 ± 4.5
25 mg/d, Week 4, ITT-LOCF, 95% CI [−0.8, 0.7], p-value 0.875
  Change in TBF-12 total score, Neramexane - Placebo LSMean Diff. ± SE: −0.1 ± 0.4
25 mg/d, Week 8, ITT-LOCF
  Change in the TBF-12 total score from baseline, Change LSMean: −1.5
[2]
  Change in the TBF-12 total score from baseline, Change Mean ± SD: −1.7 ± 2.9
  TBF-12 total score, Actual Mean ± SD: 12.7 ± 4.9
25 mg/d, Week 8, ITT-LOCF, 95% CI [−0.5, 1.2], p-value 0.429
  Change in TBF-12 total score, Neramexane - Placebo LSMean Diff. ± SE: 0.3 ± 0.4
25 mg/d, Week 12, ITT-LOCF
  Change in the TBF-12 total score from baseline, Change LSMean: −1.4
[3]
  Change in the TBF-12 total score from baseline, Change Mean ± SD: −1.6 ± 3.4
  TBF-12 total score, Actual Mean ± SD: 12.8 ± 5.0
25 mg/d, Week 12, ITT-LOCF, 95% CI [−0.3, 1.6], p-value 0.182
  Change in TBF-12 total score, Neramexane - Placebo LSMean Diff. ± SE: 0.6 ± 0.5
25 mg/d, Week 16 (end of treatment), ITT-LOCF
  Change in the TBF-12 total score from baseline, Change LSMean: −1.8
[4]
  Change in the TBF-12 total score from baseline, Change Mean ± SD: −2.0 ± 3.4
  TBF-12 total score, Actual Mean ± SD: 12.4 ± 5.3
25 mg/d, Week 16 (end of treatment), ITT-LOCF, 95% CI [−0.5, 1.5], p-value 0.359
  Change in TBF-12 total score, Neramexane - Placebo LSMean Diff. ± SE: 0.5 ± 0.5
25 mg/d, Week 20 (Follow-up), ITT-LOCF, 95% CI [−0.6, 1.6], p-value 0.336
  Change in TBF-12 total score, Neramexane - Placebo LSMean Diff. ± SE: 0.5 ± 0.6
25 mg/d, Week 20 (Follow-up, 4 weeks without treatment), ITT-LOCF
  Change in the TBF-12 total score from baseline, Change LSMean: −2.0
[5]
  Change in the TBF-12 total score from baseline, Change Mean ± SD: −2.1 ± 3.4
  TBF-12 total score, Actual Mean ± SD: 12.3 ± 5.5
50 mg/d, Week 4, ITT-LOCF
  Change in the TBF-12 total score from baseline, Change LSMean: −1.4
[6]
  Change in the TBF-12 total score from baseline, Change Mean ± SD: −1.4 ± 3.2
  TBF-12 total score, Actual Mean ± SD: 13.0 ± 4.7
50 mg/d, Week 4, ITT-LOCF, 95% CI [−1.3, 0.1], p-value 0.110
  Change in TBF-12 total score, Neramexane - Placebo LSMean Diff. ± SE: −0.6 ± 0.4
50 mg/d, Week 8, ITT-LOCF
  Change in the TBF-12 total score from baseline, Change LSMean: −2.1
[7]
  Change in the TBF-12 total score from baseline, Change Mean ± SD: −2.2 ± 3.3
  TBF-12 total score, Actual Mean ± SD: 12.3 ± 4.8
50 mg/d, Week 8, ITT-LOCF, 95% CI [−1.1, 0.5], p-value 0.488
  Change in TBF-12 total score, Neramexane - Placebo LSMean Diff. ± SE: −0.3 ± 0.4
50 mg/d, Week 12, ITT-LOCF
  Change in the TBF-12 total score from baseline, Change LSMean: −2.5
[8]
  Change in the TBF-12 total score from baseline, Change Mean ± SD: −2.6 ± 3.8
  TBF-12 total score, Actual Mean ± SD: 11.8 ± 4.9
50 mg/d, Week 12, ITT-LOCF, 95% CI [−1.4, 0.5], p-value 0.357
  Change in TBF-12 total score, Neramexane - Placebo LSMean Diff. ± SE: −0.4 ± 0.5
50 mg/d, Week 16 (end of treatment), ITT-LOCF
  Change in the TBF-12 total score from baseline, Change LSMean: −3.1
[9]
  Change in the TBF-12 total score from baseline, Change Mean ± SD: −3.2 ± 4.1
  TBF-12 total score, Actual Mean ± SD: 11.2 ± 5.1
50 mg/d, Week 16 (end of treatment), ITT-LOCF, 95% CI [−1.8, 0.2], p-value 0.098
  Change in TBF-12 total score, Neramexane - Placebo LSMean Diff. ± SE: −0.8 ± 0.5
50 mg/d, Week 20 (Follow-up), ITT-LOCF, 95% CI [−2.4, −0.2], p-value 0.021
  Change in TBF-12 total score, Neramexane - Placebo LSMean Diff. ± SE: −1.3 ± 0.6
50 mg/d, Week 20 (Follow-up, 4 weeks without treatment), ITT-LOCF
  Change in the TBF-12 total score from baseline, Change LSMean: −3.8
[10]
  Change in the TBF-12 total score from baseline, Change Mean ± SD: −3.9 ± 4.4
  TBF-12 total score, Actual Mean ± SD: 10.4 ± 5.3
75 mg/d, Week 4, ITT-LOCF
  Change in the TBF-12 total score from baseline, Change LSMean: −1.6
[11]
  Change in the TBF-12 total score from baseline, Change Mean ± SD: −1.7 ± 2.7
  TBF-12 total score, Actual Mean ± SD: 12.2 ± 4.3
75 mg/d, Week 4, ITT-LOCF, 95% CI [−1.6, −0.1], p-value 0.026
  Change in TBF-12 total score, Neramexane - Placebo LSMean Diff. ± SE: −0.9 ± 0.4
75 mg/d, Week 8, ITT-LOCF
  Change in the TBF-12 total score from baseline, Change LSMean: −1.9
[12]
  Change in the TBF-12 total score from baseline, Change Mean ± SD: −2.0 ± 3.3
  TBF-12 total score, Actual Mean ± SD: 11.9 ± 4.5
75 mg/d, Week 8, ITT-LOCF, 95% CI [−1.0, 0.7], p-value 0.813
  Change in TBF-12 total score, Neramexane - Placebo LSMean Diff. ± SE: −0.1 ± 0.4
75 mg/d, Week 12, ITT-LOCF
  Change in the TBF-12 total score from baseline, Change LSMean: −2.4
[13]
  Change in the TBF-12 total score from baseline, Change Mean ± SD: −2.5 ± 3.5
  TBF-12 total score, Actual Mean ± SD: 11.4 ± 4.9
75 mg/d, Week 12, ITT-LOCF, 95% CI [−1.3, 0.6], p-value 0.457
  Change in TBF-12 total score, Neramexane - Placebo LSMean Diff. ± SE: −0.4 ± 0.5
75 mg/d, Week 16 (end of treatment), ITT-LOCF
  Change in the TBF-12 total score from baseline, Change LSMean: −2.8
[14]
  Change in the TBF-12 total score from baseline, Change Mean ± SD: −2.9 ± 3.9
  TBF-12 total score, Actual Mean ± SD: 11.0 ± 5.1
75 mg/d, Week 16 (end of treatment), ITT-LOCF, 95% CI [−1.6, 0.5], p-value 0.289
  Change in TBF-12 total score, Neramexane - Placebo LSMean Diff. ± SE: −0.5 ± 0.5
75 mg/d, Week 20 (Follow-up), ITT-LOCF, 95% CI [−1.8, 0.5], p-value 0.244
  Change in TBF-12 total score, Neramexane - Placebo LSMean Diff. ± SE: −0.7 ± 0.6
75 mg/d, Week 20 (Follow-up, 4 weeks without treatment), ITT-LOCF
  Change in the TBF-12 total score from baseline, Change LSMean: −3.2
[15]
  Change in the TBF-12 total score from baseline, Change Mean ± SD: −3.3 ± 3.6
  TBF-12 total score, Actual Mean ± SD: 10.5 ± 4.9
After drug withdrawal
  Capability for improvement of tinnitus after withdrawal (conclusion of pilot trial): sustained improvement of tinnitus even after the drug is withdrawn
Subjects who had received low-dose (25 mg)
  Further improvement of tinnitus during 4-week wash-out period without any medication: not reported
